Laboratory results published in patent US20080305111A1, “Anti-C35 antibodies for treating cancer” (VACCINEX, INC., priority 2006, published 2008).
Like-named read-outs stand apart in the source and are kept apart here.

Tests used:
[1] = tested on: rabbit anti-human C35 polyclonal antibody; test: ELISA of rabbit C35 immune serum on plates coated with C35 15-mer peptides; format: binding
[2] = cited from earlier work
Colau.C35 tumor cells = test: Combination radioimmunotherapy and chemotherapy, second experiment (FIG. 6, Table 6); format: in vivo, Swiss nude mice
Description: Swiss nude mice were grafted with Colau.C35 cells on day 0. Chemotherapy: Cisplatin administered at 2 mg/kg i.v. on days 15 & 18; 5FU/LV administered at 180/120 mg/kg i.v. on day 18.
Cispaltin was administered on days 15 and 18 following tumor graft. […] Tumor growth was followed for up to 10 weeks.

21MT1 tumor cells = test: C35 surface staining following drug induced apoptosis (flow cytometry); format: cell-based
Description: 24 hours following treatment with 0.5 uM Taxol™, 21MT1 tumor cells were stained with annexin V-FITC, propidium iodide, and with either 100 ng anti-C35 antibody 1F2 (dark line) or isotype control (grey fill) antibody. Both antibodies were directly conjugated to Alexa-647. Histograms were gated on the cells undergoing apoptosis (annexinV positive/PI negative). Antibodies were pre-incubated with PAB buffer (FIG. 3A), 100-fold molar excess recombinant C35 protein (FIG. 3B), or 100-fold molar excess β-galactosidase protein (FIG. 3C).
A line of continuously growing breast tumor cells that express the C35 tumor antigen was either treated with 6 ug/ml mitomycin C or left untreated. After continued in vitro culture for 48 hours to allow apoptosis to develop, cells were harvested, washed and stained with 50 ng of 1F2 monoclonal anti-C35 antibody or a mouse IgG antibody control each conjugated to the fluorescent dye Alexa 647. Following 50 minutes incubation at 25° C., cells were stained with Annexin V and propidium iodide (PI) using a standard commercial kit (Pharmingen). Cells were analyzed for staining with Annexin V, propidium iodide and Alexa 647 by flow cytometry employing standard protocols.

[3] = Toxicity of chemotherapy, radioimmunotherapy and combination therapy by weight loss (FIG. 8); set-up: species or system Swiss nude mice; conditions: Swiss nude, mouse, in vivo, intravenous; together with Leucovorin at 120 mg/kg
[4] = 14 μg/ml peptide coated plates, 100 ng/ml primary antibody
[5] = 40 μg/ml peptide coated plates, 1 μg/ml primary antibody
[6] = literature values, schedule as in table
[7] = non-toxic dose at indicated schedule (dose of column Dose + RIT)

Row | Molecule | Absorbance @ 450-570 nm [1, 4] | Absorbance @ 450-570 nm [1, 5] | other results
1 | EEVEPGSGVRIVVEY [P15] | 0.039 | 0.334 | 
2 | YEKDLIEAIRRASNG [P85] | 0.024 | 0.179 | 
3 | SGEPGQTSVAPPPEE [P2] | 0.108 | 1.227 | 
4 | GGFPYEKDLIEAIRR [P81] | 0.032 | 0.204 | 
5 | RASNGETLEKITNSR [P95] | 0.062 | 0.462 | 
6 | TSVAPPPEEVEPGSG [P8] | 0.059 | 0.394 | 
7 | VAPPPEEVEPGSGVR [P10] | 1.736 | 3.407 | 
8 | TGAFEIEINGQLVFS [P62] | 0.023 | 0.107 | 
9 | TLEKITNSRPPAVIL [P101] | 0.472 | 2.519 | 
10 | AIRRASNGETLEKIT [P92] | 0.04 | 0.267 | 
11 | N.N.[Cl][Pt][Cl] [Cisplatin] |  |  | Maximum Tolerated Dose [2, 6]: 4 mg/kg; TDD = Tumor doubling delay (Colau.C35 tumor cells; T − C/tumor volume doubling time of untreated): 0.66; LCK = Log Cell Kill (Colau.C35 tumor cells; TDD/3.32): 0.20; Colau.C35 tumor growth (FIG. 6) (Colau.C35 tumor cells; cisplatin 2 mg/kg days 15, 18, 5FU/LV 180/120 mg/kg day 18, 300 μCi ^131I-1B3 day 21): some inhibition; T − C: difference in time for treated and control tumors to reach a given volume (Colau.C35 tumor cells; volume 1200 mm^3): 5 days
12 | AFEIEINGQLVFSKL [P64] | 0.055 | 0.423 | 
13 | APPPEEVEPGSGVRI [P11] | 1.526 | 3.317 | 
14 | IEAIRRASNGETLEK [P90] | 0.04 | 0.403 | 
15 | EKDLIEAIRRASNGE [P86] | 0.023 | 0.166 | 
16 | SNGETLEKITNSRPP [P97] | 0.046 | 0.373 | 
17 | SVAPPPEEVEPGSGV [P9] | 2.31 | 3.367 | 
18 | CC(=O)O[C@H]1C(=O)[C@@]2(C)[C@H]([C@H](OC(=O)c3ccccc3)[C@]3(O)C[C@H](OC(=O)[C@H](O)[C@@H](NC(=O)c4ccccc4)c4ccccc4)C(C)=C1C3(C)C)[C@]1(OC(C)=O)CO[C@@H]1C[C@@H]2O [Taxol, paclitaxel] |  |  | Maximum Tolerated Dose [2, 7]: No toxicity ^2; induction of apoptosis and C35 surface exposure (21MT1 tumor cells; 0.5 uM, 24 hours, stained with 1F2): induces apoptosis, resulting in exposure of C35 on the surface of apoptotic tumor cells
19 | PYEKDLIEAIRRASN [P84] | 0.037 | 0.391 | 
20 | GFPYEKDLIEAIRRA [P82] | 0.02 | 0.18 | 
21 | IRRASNGETLEKITN [P93] | 0.051 | 0.389 | 
22 | PEEVEPGSGVRIVVE [P14] | 0.127 | 0.972 | 
23 | CO[C@@]12[C@H](COC(N)=O)C3=C(C(=O)C(C)=C(N)C3=O)N1C[C@@H]1N[C@@H]12 [mitomycin C] |  |  | C35 surface staining of treated cells undergoing apoptosis (21MT1 tumor cells; 6 ug/ml, 48 hours, PI negative, Annexin V positive cells): clearly differentially stained with anti-C35 antibodies as compared to isotype control antibody
24 | GEPGQTSVAPPPEEV [P3] | 1.458 | 3.349 | 

Row | Molecule | Absorbance @ 450-570 nm [1, 4] | Absorbance @ 450-570 nm [1, 5] | other results
25 | PPEEVEPGSGVRIVV [P13] | 0.385 | 2.522 | 
26 | O=c1[nH]cc(F)c(=O)[nH]1 [5-FluoroUracil] |  |  | MTD [3]: 180 mg/kg
27 | PGQTSVAPPPEEVEP [P5] | 2.719 | 3.383 | 
28 | GETLEKITNSRPPAV [P99] | 0.026 | 0.18 | 
29 | ETLEKITNSRPPAVI [P100] | 0.017 | 0.124 | 
30 | Nc1ccn([C@@H]2O[C@H](CO)[C@@H](O)C2(F)F)c(=O)n1 [Gemcitabine] |  |  | Maximum Tolerated Dose [2, 7]: No toxicity ^5
31 | FEIEINGQLVFSKLE [P65] | 0.043 | 0.269 | 
32 | PPPEEVEPGSGVRIV [P12] | 0.836 |  | 
33 | QTSVAPPPEEVEPGS [P7] | 2.635 | 3.388 | 
34 | MSGEPGQTSVAPPPE [P1] | 0.257 |  | 
35 | EPGQTSVAPPPEEVE [P4] | 1.254 | 3.282 | 
36 | GAFEIEINGQLVFSK [P63] | 0.079 | 0.557 | 
37 | DLIEAIRRASNGETL [P88] | 0.025 | 0.135 | 
38 | EIEINGQLVFSKLEN [P66] | 0.028 | 0.182 | 
39 | GQTSVAPPPEEVEPG [P6] | 2.483 | 3.381 | 
40 | NGETLEKITNSRPPA [P98] | 0.035 | 0.213 | 
41 | EAIRRASNGETLEKI [P91] | 0.023 | 0.144 | 
42 | FPYEKDLIEAIRRAS [P83] | 0.025 | 0.19 | 
43 | NGGFPYEKDLIEAIR [P80] | 0.018 | 0.1 | 
44 | O=C1[O][Pt]2([NH][C@@H]3CCCC[C@H]3[NH]2)[O]C1=O [Oxaliplatin] |  |  | Maximum Tolerated Dose [2, 6]: 5 mg/kg
45 | EVEPGSGVRIVVEYA [P16] | 0.027 | 0.172 | 
46 | RRASNGETLEKITNS [P94] | 0.061 | 0.526 | 
47 | O=P1(N(CCCl)CCCl)NCCCO1 (centres unmarked) [Cyclophosphamide] |  |  | Maximum Tolerated Dose [2, 7]: No toxicity ^2
48 | LIEAIRRASNGETLE [P89] | 0.015 | 0.053 | 
